Patent publication US20220372024A1, “CRYSTALLINE FORMS OF ENTRECTINIB” (Johnson Matthey Public Limited Company, priority 2019, published 2022)
Like-named read-outs stand apart in the source and are kept apart here.

Legend:
Type in all cases: physicochemical
[1] = Four hour solubility in buffered media (HPLC quantitation); conditions: for solubility at 4 h: 25 °C, thermodynamic from solid, read-out: Solubility after 4 hours; for Solubility after 4 hours: 25° C.
Method: Sufficient sample was suspended in 1.0 ml media for a maximum anticipated concentration of ca. 10 mg/ml of the free form of the compound. The resulting suspensions were then shaken at 25° C./750 rpm for 4 hours. The pH of the sample solutions was checked after 1 hour and adjusted as necessary with 0.2 M NaOH to ensure that the desired pH was maintained throughout (±0.2). After equilibration, the appearance was noted, and the final pH of the saturated solution was measured. Samples were then filtered through a glass C′ fibre filter (Particle retention size 1.2 μm). Samples suspended in pH 1.2 buffer were diluted 10 times with pH 1.2 buffer, all other samples were analysed undiluted. Quantitation was by HPLC with reference to a standard solution of approximately 0.15 mg/ml. Different volumes of the standard, diluted and undiluted sample solutions were injected. The solubility was calculated using the peak areas determined by integration of the peak found at the same retention time as the principal peak in the standard injection. [table] [table]

[2] = Storage stability of the crystalline form (XRPD diffractogram and chemical purity); conditions: 28 days storage at 40° C./75% RH and 25° C./97% RH
Text: (§1) Entrectinib anhydrate (Form A) was also characterised as follows: • TGA and DSC analysis (see FIG. 2). • GVS isotherm analysis (see FIG. 3). • XRPD analysis pre- (bottom) and post- (top) GVS (see FIG. […] 5). The XRPD overlays illustrate that entrectinib anhydrate (Form A) is stable under the storage conditions.
Entrectinib anhydrate (Form C) was also characterised as follows: • TGA and DSC analysis (see FIG. 9). • GVS isotherm analysis (see FIG. 10). • XRPD analysis before (bottom) and after (top) the GVS experiment (see FIG. […] 12). The XRPD overlays illustrate that entrectinib anhydrate (Form C) is stable under the storage conditions (see FIG. 12).
as §1, with “monohydrate” for “anhydrate”, “G)” for “A)”, “20).” for “2).”, “21).” for “3).”, “23).” for “5).”

[3] = Gravimetric vapour sorption (GVS), XRPD after analysis; conditions: 25° C., 0-90% RH
Text: Hygroscopicity of a solid material may be determined by means of gravimetric vapour sorption (GVS) analysis, sometimes known by dynamic vapour sorption (DVS) analysis. The experiment subjects a sample material which is held in a fine wire basket on a microbalance within a temperature and humidity controlled environment (chamber). Using the software, the collected data can then be processed to determine the isotherm points at the increment ranges specified during the experiment and show the overall water uptake of the material. Sorption isotherms were obtained using a SMS DVS Intrinsic moisture sorption analyser, controlled by DVS Intrinsic Control software. The sample temperature was maintained at 25° C. by the instrument controls. The humidity was controlled by mixing streams of dry and wet nitrogen, with a total flow rate of 200 ml/min. The relative humidity was measured by a calibrated Rotronic probe (dynamic range of 1.0-100% RH), located near the sample. The weight change, (mass relaxation) of the sample as a function of % RH was constantly monitored by a microbalance (accuracy ±0.005 mg). Typically, 5-30 mg of sample was placed in a tared mesh stainless steel basket under ambient conditions. The sample was loaded and unloaded at 40% RH and 25° C. (typical room conditions). A moisture sorption isotherm was performed as outlined below (2 scans per complete cycle). The standard isotherm was performed at 25° C. at 10% RH intervals over a 0-90% RH range. Typically, a double cycle (4 scans) was carried out. Data analysis was carried out within Microsoft Excel using the DVS Analysis Suite. [table]

[4] = Intrinsic dissolution rate (IDR), Sirius inForm; conditions: pH 2.8, 37° C., 3 mm disc
Text: Data were collected on a Sirius inForm instrument fitted with a dual UV Dip Probe attachment and Ag/AgCl combination pH electrode. The electrode was calibrated using the four plus parameters derived from a blank titration. The base titrant was standardised by titration with TRIS. 0.5 M HCl and NaOH aqueous solutions were used as the acid and base titrants respectively for the testing. Stirring was facilitated by a dual overhead stirrer to allow thorough mixing within the vessel, and media was introduced via a capillary bundle attached to a dispensing bank comprised of six precision dispensing units. A Peltier heating jacket was used to maintain the temperature of the titration vessel. Discs were introduced to the vessel via the tablet picker housed in the probe arm, after the desired temperature of the media had been reached. Sirius inForm Assay Design, Control and Refine software were used to design, run and refine data respectively. The reference sample was prepared as a 10.1 mM stock solution in DMSO. MEC data was then collected using UV metric method with initial addition of 100 μl of DMSO stock. UV Spectra were then collected from low to high pH (pH 2-12) in two titrations using a 5 mm path length. The MEC data set was then imported into the dissolution data files in order to convert the UV absorbance measured to concentration. The concentration range for UV data collected was […]. MEC data were collected in the dissolution media (36 ml of ISA water+4 ml of GI Tract buffer) and at 37° C. to match the dissolution experiments. Ca. 8-20 mg of the sample was compressed in a 3 mm disc recess, under 100 kg for 2 minutes, with greaseproof paper on the compression base, to form non-disintegrating discs. The discs were then plugged with a bung so that only one surface was exposed to the media during analysis and transferred to the Sirius inForm dissolution apparatus. […] The IDR was calculated based on the surface area of the 3 mm disc recess used (7.07 mm^2 surface area). […]

[5] = pH 1.2 hydrochloric acid buffer

solubility at 4 h ([1]; hydrochloric acid buffer, pH 1.2, simulated gastric fluid, pH 1.2 hydrochloric acid buffer)	solubility at 4 h ([1]; pH 2.8 buffer, pH 2.8, aqueous buffer, pH 2.8 buffer)	Solubility after 4 hours ([1]; pH 4.5 acetate buffer)	Solubility after 4 hours ([1]; pH 6.8 phosphate buffer)	Solubility after 4 hours ([1]; pH 7.5 phosphate buffer)	Stability under the storage conditions (XRPD overlays) [2]	Change in form after GVS (XRPD after analysis) [3]	IDR [4]	Solubility after 4 hours [1, 5]	Solubility after 4 hours ([1]; pH 2.8 buffer)	Structure (SMILES)
> 5000 µg/mL	> 5000 µg/mL	pH 4.5->5.0 mg/ml	pH 6.8-0.0024 mg/ml	pH 7.5-0.0013 mg/ml	stable	unchanged	pH 2.8: 2.5 mg/min/cm^2	–	–	CN1CCN(c2ccc(C(=O)Nc3n[nH]c4ccc(Cc5cc(F)cc(F)c5)cc34)c(NC3CCOCC3)c2)CC1 [Form A, N-[5-[(3,5-difluorophenyl)methyl]-1H-indazol-3-yl]-4-(4-methylpiperazin-1-yl)-2-(oxan-4-ylamino)benzamide]
–	–	pH 4.5-0.10 mg/ml	pH 6.8-0.0002 mg/ml	pH 7.5-0.0002 mg/ml	stable	substantially unchanged	pH 2.8: 1.6 mg/min/cm^2	pH 1.2->5.0 mg/ml	pH 2.8->5.0 mg/ml	CN1CCN(c2ccc(C(=O)Nc3n[nH]c4ccc(Cc5cc(F)cc(F)c5)cc34)c(NC3CCOCC3)c2)CC1 [Form G, N-[5-[(3,5-difluorophenyl)methyl]-1H-indazol-3-yl]-4-(4-methylpiperazin-1-yl)-2-(oxan-4-ylamino)benzamide]
–	–	pH 4.5-4.0 mg/ml	pH 6.8-0.0013 mg/ml	pH 7.5-0.0006 mg/ml	stable	unchanged	pH 2.8: 2.5 mg/min/cm^2	pH 1.2-4.3 mg/ml	pH 2.8->5.0 mg/ml	CN1CCN(c2ccc(C(=O)Nc3n[nH]c4ccc(Cc5cc(F)cc(F)c5)cc34)c(NC3CCOCC3)c2)CC1 [Form C, N-[5-[(3,5-difluorophenyl)methyl]-1H-indazol-3-yl]-4-(4-methylpiperazin-1-yl)-2-(oxan-4-ylamino)benzamide]
